Results on eight compounds are retold here after patent US20130267516A1, “SUBSTITUTED CYCLOPENTYL-AZINES AS CASR-ACTIVE COMPOUNDS” (LEO PHARMA A/S, priority 2010, published 2013).

The series is described as follows: Clearance in human liver microsomes. It counts as in vitro ADME. The following applies: hepatic extraction ratio; 0.5 μM compound, 0.5 mg/mL microsomes, 1 mM NADPH, 30 min. The protocol:
Test compound concentration is 0.5 μM, microsome concentration is 0.5 mg/mL and NADPH concentration is 1 mM in the incubation. The described method is performed by the liquid handling system Tecan RSP and is based on a 96-well format.
Control incubations with test compound without NADPH and test compound without microsomes are conducted to investigate non-CYP mediated metabolism and stability in phosphate buffer at 37° C., respectively.
The human liver microsomal suspension in phosphate buffer is mixed with NADPH. The mixture is pre-heated (7 min) to 37° C. Test compound is added, and the mixture is incubated for 30 minutes. Incubations are run in duplicate. Samples are withdrawn at predetermined stop times and mixed with methanol containing internal standard (IS) to terminate all enzyme activity and precipitate proteins. A control without NADPH (to detect problems such as nonspecific protein binding, heat instability or non-CYP mediated metabolism) and a control without microsomes (for assessing compound stability in the absence of any active enzymes) are tested.
The percentage of organic solvent in the incubations is less than 1%. Careful inspections of reagents are performed prior to the start of any experiment to ensure all reagents are in solution.
The 96-well plates are centrifuged. Test compound depletion, using a compound specific LC/MS/MS method, is determined.
The logarithm of the peak area ratios of test compound to internal standard (IS) versus incubation time is plotted in a graph.
The rate constant (k) (min^−1) of test compound depletion is calculated from the linear part of the curve and the half-time (t1/2) in minutes can be calculated from the rate constant (Eq. 2).
Intrinsic clearance (Clint) (mL/min/mg protein) is calculated from: […]
where c is the microsomal protein concentration in mg/mL.
Intrinsic clearance is the maximum ability of the liver to extract a drug in the absence of blood flow restrictions.
Conversion to apparent clearance (Clapp) (mL/min/kg) is done by Eq. 4:
Clapp=Clint×a×b/d (Eq. 4)
where a, b and d are the scaling factors for normalizing Clint to human body weight.
The following human scaling factors are used:
a: 45 (microsomal protein/liver weight (mg/g)) b: 1500 (liver weight (g)) d: 70 (body weight (kg))
Hepatic clearance (Clh) (mL/min/kg) based on the well-stirred model is described as followed:
Clh=(Clapp·Q)/(Clapp+Q) (Eq. 5)
where Q is the liver blood flow in mL/min/kg (20 in humans).
Dividing hepatic clearance with liver blood flow, the hepatic extraction ratio (%) can be calculated:
Apparent clearance below approximately 10 mL/min/kg human body weight (corresponding to extraction ratio of approx. 33%) is considered as low clearance (high metabolic stability). Apparent intrinsic clearance above approximately 60 mL/min/kg human body weight (corresponding to extraction ratio of approx. 75%) is considered as high clearance (low metabolic stability).
Background: Liver microsomes are a subcellular fraction often used to study metabolism.

SMILES strings stand for the structures.

With `COc1cc([C@@H](C)N[C@H]2CC[C@@H](c3cnc(N4CCN(C(C)=O)CC4)nc3)C2)ccc1F.O=CO` [Compound 127, 1-[4-[5-[(1R,3S)-3-[[(1R)-1-(4-Fluoro-3-methoxy-phenyl)ethyl]amino]cyclopentyl]pyrimidin-2-yl]piperazin-1-yl]ethanone], the “Clearance (% Eh) in human liver microsomes” value (“Clearance (% Eh)” for short) is reported as “A (A: Eh < 33%)”.
Take `COc1cc([C@@H](C)N[C@H]2CC[C@@H](c3ccc(NC4CCNCC4)nc3)C2)ccc1F` [Compound 107, 5-[(1R,3S)-3-[[(1R)-1-(4-Fluoro-3-methoxy-phenyl)ethyl]amino]cyclopentyl]-N-(4-piperidyl)pyridin-2-amine]: the “Clearance (% Eh)” value is “A (A: Eh < 33%)”.
The result for `COc1cc([C@@H](C)N[C@H]2CC[C@@H](c3cnc(N4CCNC(=O)C4)nc3)C2)ccc1F` [Compound 126, 4-[5-[(1R,3S)-3-[[(1R)-1-(4-Fluoro-3-methoxy-phenyl)ethyl]amino]cyclopentyl]pyrimidin-2-yl]piperazin-2-one] reads “A (A: Eh < 33%)”.
Consider `COc1cc([C@@H](C)N[C@H]2CC[C@@H](c3ccc(NCCS(N)(=O)=O)nc3)C2)ccc1F` [Compound 113, 2-[[5-[(1R,3S)-3-[[(1R)-1-(4-Fluoro-3-methoxyphenyl)ethyl]amino]cyclopentyl]-2-pyridyl]amino]ethanesulfonamide], for which the “Clearance (% Eh)” value is reported as “A (A: Eh < 33%)”.
On to `C[C@@H](N[C@H]1CC[C@@H](c2ccc(NCCNCCO)nc2)C1)c1cccc2ccccc12.O=CO.O=CO.O=CO` [Compound 101, 2-[2-[[5-[(1R,3S)-3-[[(1R)-1-(1-Naphthyl)ethyl]amino]cyclopentyl]-2-pyridyl]amino]ethylamino]ethanol], for which the “Clearance (% Eh)” value is reported as “A (A: Eh < 33%)”.
With `COc1cc([C@@H](C)N[C@H]2CC[C@@H](c3ccc(N4CCNC(=O)C4)nc3)C2)ccc1F` [Compound 109, 4-[5-[(1R,3S)-3-[[(1R)-1-(4-Fluoro-3-methoxy-phenyl)ethyl]amino]cyclopentyl]-2-pyridyl]piperazin-2-one], the “Clearance (% Eh)” value is recorded as “A (A: Eh < 33%)”.
On to `COc1cc([C@@H](C)N[C@H]2CC[C@@H](c3ccc(NCC(O)CO)nc3)C2)ccc1F` (stereo partly drawn) [Compound 115, 3-[[5-[(1R,3S)-3-[[(1R)-1-(4-Fluoro-3-methoxyphenyl)ethyl]amino]cyclopentyl]-2-pyridyl]amino]propane-1,2-diol], for which the “Clearance (% Eh)” value is listed as “A (A: Eh < 33%)”.
For the compound `COc1cc([C@@H](C)N[C@H]2CC[C@@H](c3ccc(N4CCN(C(C)=O)CC4)nc3)C2)ccc1F` [Compound 116, 1-[4-[5-[(1R,3S)-3-[[(1R)-1-(4-Fluoro-3-methoxyphenyl)ethyl]amino]cyclopentyl]-2-pyridyl]piperazin-1-yl]ethanone], the “Clearance (% Eh)” value was “A (A: Eh < 33%)”.
